Reference: publication PMC10002548, “Amorphous System of Hesperetin and Piperine—Improvement of Apparent Solubility, Permeability, and Biological Activities” (International Journal of Molecular Sciences, 2023)
≈ marks a conversion by molar mass, not a printed value.

Experiments:
[1] = Dissolution study (paddle apparatus); type: physicochemical; conditions: phosphate buffer pH 6.8, 37 °C, 50 rpm; raw compound value after one hour
Protocol: (§1) The injection volume differed depending on the assay. […] The method’s duration was 10 min.
(§2) Phosphate buffer at pH 6.8 was prepared according to the following description: in a 1000-mL volumetric flask, we placed 250 mL of 0.2 N potassium dihydrogen phosphate solution, then added 112 mL of 0.2 N sodium hydroxide solution, and filled the mixture up to 1000 mL with distilled water. High-quality pure water was prepared using a Direct-Q 3 UV purification system (Millipore, Molsheim, France, model Exil SA 67120).
The dissolution study was performed on the paddle apparatus. The amount of the compound and systems corresponding to 7.0 mg of each plant-origin active ingredient was added to the dissolution medium. The vessels were filled with 500 mL of phosphate buffer, pH 6.8; the temperature was maintained at 37 °C, and the paddles were set at a stirring speed of 50 rotations per minute. The 2.0 mL samples were withdrawn at predetermined time points with the replacement of equal volumes of temperature-equilibrated media.

physchem = type: physicochemical; conditions: for solubility thermodynamic at 3 h: pH 6.8, aqueous buffer, thermodynamic from solid
Protocol: as §1, §2
An excess amount of raw compounds and systems was placed in a 10 mL glass tube; then, 2.0 mL of phosphate buffer (pH 6.8) was added and left at room temperature for 3 h.

in vitro = in vitro ADME
Protocol: as §1
The sandwich consists of two 96-well microfilter plates.

[2] = PAMPA BBB permeability assay
Description: For the stationary phase, a Dr. Maisch ReproSil-Pur Basic-C18 100 Å column with 5 µm particle size and 250 × 4.60 mm (Dr. Maisch, Ammerbuch-Entringen, Germany) was used. […] The mobile phase was vacuum-filtered through a 0.45 µm nylon filter (Phenomenex, Torrance, CA, USA). […] The injection volume differed depending on the assay.
The sandwich consists of two 96-well microfilter plates. The PAMPA systems contain two chambers: the donor chamber at the bottom and the acceptor chamber at the top. […] The plates were combined and then incubated for 3 h for both models in a humidity-saturated atmosphere with the temperature set at 37 °C. To assess the apparent permeability coefficient factor (Papp), 5.0 mg of raw compounds were dissolved in 1.0 mL of DMSO. Then, we followed the manufacturer’s guidelines for further performance in the assay. […] In the case of the studied systems, the solutions were first prepared in the same manner as in the solubility study. […] Next, the obtained solution was diluted 1:1 with donor solution for the GIT and BBB assays and placed in the donor compartment. The results were expressed as a concentration in the acceptor solution.

COc1ccc([C@@H]2CC(=O)c3c(O)cc(O)cc3O2)cc1O [Hesperetin, hesperetin]
hesperetin dissolved (% of the dose added to the dissolution medium) [1]: 23.75 ± 2.99% | Hesperetin Conc. (physchem; 3 h, pH 6.8): 0.005 ± 0.001 mg/mL | solubility thermodynamic at 3 h (physchem): 5 ± 1 µg/mL (≈ 16.5 µM) | concentration of hesperetin in the acceptor part, PAMPA GIT (in vitro; 3 h, pH 6.8): 25.8 ± 6.16 ng/mL | Papp (in vitro; PAMPA, raw compound dissolved in DMSO, donor pH ≈ 6.8, 3 h, 37 °C, read-out: apparent permeability coefficient (Papp), PAMPA GIT): 2.59 ×10⁻⁶ cm/s | Papp at 3 h ([2]; PAMPA, pH 7.4): 7.05 ×10⁻⁶ cm/s | concentration of hesperetin in the acceptor part, PAMPA BBB ([2]; donor pH ≈ 7.4, 3 h, 37 °C): 38.9 ± 16.6 ng/mL

O=C(/C=C/C=C/c1ccc2c(c1)OCO2)N1CCCCC1 [Piperine, piperine]
piperine dissolved (% of the dose added to the dissolution medium) [1]: 27.79 ± 3.38% | Piperine Conc. (physchem; 3 h, pH 6.8): 0.006 ± 0.001 mg/mL | solubility thermodynamic at 3 h (physchem): 6 ± 1 µg/mL (≈ 21 µM) | concentration of piperine in the acceptor part, PAMPA GIT (in vitro; 3 h, pH 6.8): 2010 ± 100 ng/mL | Papp at 3 h (in vitro; PAMPA, pH 6.8): 37.3 ×10⁻⁶ cm/s | concentration of piperine in the acceptor part, PAMPA BBB ([2]; PAMPA, 3 h, pH 7.4): 1030 ± 104 ng/mL | Papp at 3 h ([2]; PAMPA, pH 7.4): 40 ×10⁻⁶ cm/s
